Laboratory results reported in PubChem BioAssay (NCI).
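1) Cells in 96-well plates. 2) Compound, 48 h, 5 concentrations. 3) Linear interpolation between surrounding doses. 4) Unreached endpoint = highest concentration. GI50 marks 50% less growth. TGI: concentration producing complete growth inhibition.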

Key:
Test in all cases: growth of human tumour cells (NCI), 48 h
SF-539 CNS = system: SF-539 CNS
LOX IMVI melanoma = system: LOX IMVI melanoma
HT29 colon = system: HT29 colon
OVCAR-3 ovarian = system: OVCAR-3 ovarian
ACHN renal = system: ACHN renal
NCI-H226 lung = system: NCI-H226 lung
SF-268 CNS = system: SF-268 CNS
TK-10 renal = system: TK-10 renal
HOP-92 NSCLC = system: HOP-92 NSCLC
MDA-MB-231 breast = system: MDA-MB-231 breast
U251 CNS = system: U251 CNS
T-47D breast = system: T-47D breast
A498 renal = system: A498 renal
NCI/ADR-RES ovarian = system: NCI/ADR-RES ovarian
OVCAR-4 ovarian = system: OVCAR-4 ovarian
NCI-H460 lung = system: NCI-H460 lung
SK-MEL-28 melanoma = system: SK-MEL-28 melanoma
SF-295 CNS = system: SF-295 CNS
HCC-2998 colon = system: HCC-2998 colon
A549 NSCLC = system: A549 NSCLC
SK-MEL-5 melanoma = system: SK-MEL-5 melanoma
COLO 205 colon = system: COLO 205 colon
IGROV1 ovarian = system: IGROV1 ovarian
MCF7 breast = system: MCF7 breast
NCI-H522 lung = system: NCI-H522 lung
HS 578T breast = system: HS 578T breast
NCI-H23 lung = system: NCI-H23 lung
OVCAR-8 ovarian = system: OVCAR-8 ovarian
OVCAR-5 ovarian = system: OVCAR-5 ovarian
PC-3 prostate = system: PC-3 prostate
SN12C renal = system: SN12C renal
K-562 leukemia = system: K-562 leukemia
BT-549 breast = system: BT-549 breast
M14 melanoma = system: M14 melanoma
KM12 colon = system: KM12 colon
UACC-62 melanoma = system: UACC-62 melanoma
UO-31 renal = system: UO-31 renal
786-0 renal = system: 786-0 renal
CCRF-CEM leukemia = system: CCRF-CEM leukemia
SW-620 colon = system: SW-620 colon
MOLT-4 leukemia = system: MOLT-4 leukemia
SK-MEL-2 melanoma = system: SK-MEL-2 melanoma
CAKI-1 renal = system: CAKI-1 renal
UACC-257 melanoma = system: UACC-257 melanoma
SK-OV-3 ovarian = system: SK-OV-3 ovarian
HCT-116 colon = system: HCT-116 colon
EKVX NSCLC = system: EKVX NSCLC
RXF 393 renal = system: RXF 393 renal
DU-145 prostate = system: DU-145 prostate
MALME-3M melanoma = system: MALME-3M melanoma
SNB-19 CNS = system: SNB-19 CNS
HOP-62 NSCLC = system: HOP-62 NSCLC
SR leukemia = system: SR leukemia
HL-60(TB) leukemia = system: HL-60(TB) leukemia
HCT-15 colon = system: HCT-15 colon
MDA-MB-435 = system: MDA-MB-435

## CNNC(=N\S(=O)(=O)c1cc(C(=O)Nc2ccc(Cl)cc2)c(Cl)cc1SCc1ccccc1)/N=C/c1ccc([N+](=O)[O-])s1
SF-539 CNS
  GI50: > 100 µM
  TGI: > 100 µM
LOX IMVI melanoma
  GI50: > 100 µM
  TGI: > 100 µM
HT29 colon
  GI50: > 28.2 µM
  TGI: > 100 µM
OVCAR-3 ovarian
  GI50: > 100 µM
  TGI: > 100 µM
ACHN renal
  GI50: > 100 µM
  TGI: > 100 µM
NCI-H226 lung
  GI50: > 100 µM
  TGI: > 100 µM
SF-268 CNS
  GI50: > 100 µM
  TGI: > 100 µM
TK-10 renal
  GI50: > 100 µM
  TGI: > 100 µM
HOP-92 NSCLC
  GI50: 4.54 µM
  TGI: 62.2 µM
MDA-MB-231 breast
  GI50: 6.2 µM
  TGI: > 100 µM
U251 CNS
  GI50: > 100 µM
  TGI: > 100 µM
T-47D breast
  GI50: 7.07 µM
  TGI: > 100 µM
A498 renal
  GI50: > 100 µM
  TGI: > 100 µM
NCI/ADR-RES ovarian
  GI50: > 100 µM
  TGI: > 100 µM
OVCAR-4 ovarian
  GI50: > 100 µM
  TGI: > 100 µM
NCI-H460 lung
  GI50: 3.91 µM
  TGI: > 27.7 µM
SK-MEL-28 melanoma
  GI50: > 100 µM
  TGI: > 100 µM
SF-295 CNS
  GI50: > 100 µM
  TGI: > 100 µM
HCC-2998 colon
  GI50: 2.83 µM
  TGI: > 100 µM
A549 NSCLC
  GI50: 20.5 µM
  TGI: > 100 µM
SK-MEL-5 melanoma
  GI50: 6.57 µM
  TGI: > 45.9 µM
COLO 205 colon
  GI50: 8.97 µM
  TGI: > 100 µM
IGROV1 ovarian
  GI50: > 70.1 µM
  TGI: > 100 µM
MCF7 breast
  GI50: > 100 µM
  TGI: > 100 µM
NCI-H522 lung
  GI50: > 100 µM
  TGI: > 100 µM
HS 578T breast
  GI50: 38.2 µM
  TGI: > 100 µM
NCI-H23 lung
  GI50: > 100 µM
  TGI: > 100 µM
OVCAR-8 ovarian
  GI50: > 100 µM
  TGI: > 100 µM
OVCAR-5 ovarian
  GI50: > 100 µM
  TGI: > 100 µM
PC-3 prostate
  GI50: > 100 µM
  TGI: > 100 µM
SN12C renal
  GI50: 6.6 µM
  TGI: > 100 µM
K-562 leukemia
  GI50: 15.9 µM
  TGI: > 100 µM
BT-549 breast
  GI50: > 100 µM
  TGI: > 100 µM
M14 melanoma
  GI50: 10.1 µM
  TGI: > 100 µM
KM12 colon
  GI50: > 100 µM
  TGI: > 100 µM
UACC-62 melanoma
  GI50: > 100 µM
  TGI: > 100 µM
UO-31 renal
  GI50: > 100 µM
  TGI: > 100 µM
786-0 renal
  GI50: > 100 µM
  TGI: > 100 µM
CCRF-CEM leukemia
  GI50: > 85.1 µM
  TGI: > 100 µM
SW-620 colon
  GI50: > 20.9 µM
  TGI: > 100 µM
MOLT-4 leukemia
  GI50: > 100 µM
  TGI: > 100 µM
SK-MEL-2 melanoma
  GI50: > 100 µM
  TGI: > 100 µM
CAKI-1 renal
  GI50: > 100 µM
  TGI: > 100 µM
UACC-257 melanoma
  GI50: > 100 µM
  TGI: > 100 µM
SK-OV-3 ovarian
  GI50: > 100 µM
  TGI: > 100 µM
HCT-116 colon
  GI50: 2.3 µM
  TGI: > 100 µM
EKVX NSCLC
  GI50: > 54.4 µM
  TGI: > 100 µM
RXF 393 renal
  GI50: > 100 µM
  TGI: > 100 µM
DU-145 prostate
  GI50: > 20.3 µM
  TGI: > 100 µM
MALME-3M melanoma
  GI50: > 100 µM
  TGI: > 100 µM
SNB-19 CNS
  GI50: > 100 µM
  TGI: > 100 µM
HOP-62 NSCLC
  GI50: > 36 µM
  TGI: > 100 µM
SR leukemia
  GI50: > 100 µM
  TGI: > 100 µM
HL-60(TB) leukemia
  GI50: > 100 µM
  TGI: > 100 µM
HCT-15 colon
  GI50: 22.5 µM
  TGI: > 100 µM
MDA-MB-435
  GI50: 23.4 µM
  TGI: > 100 µM
